Test results reported in PubChem BioAssay AID1900 (Broad Institute, 2009).
pEC50: −log10 of the molar value. “And” between values parts separate entries of the source, which are not always exact repeats. Equal entries are not always repeated.

System: SK(-)GAS Streptococcus pyogenes + kanamycin, BacTiterGlo viability, 6 h
Experiment: Streptococcus pyogenes SK(-)GAS viability under kanamycin – luminescence, BacTiterGlo, confirmation, counter-screen for streptokinase expression inhibitor project, dose response (AID 1900)

SMILES | pEC50
CNC(CC(C)C)C(=O)NC1C(=O)NC(CC(N)=O)C(=O)NC2C(=O)NC3C(=O)NC(C(=O)NC(C(=O)O)c4cc(O)cc(O)c4-c4cc3ccc4O)C(O)c3ccc(c(Cl)c3)Oc3cc2cc(c3OC2OC(CO)C(O)C(O)C2OC2CC(C)(N)C(O)C(C)O2)Oc2ccc(cc2Cl)C1O (configuration not stated) | 6.68
CN(C)c1ccnc2c[cH-]cc12.[Fe].c1ccc(-[c-]2[c-](-c3ccccc3)[c-](-c3ccccc3)[c-](-c3ccccc3)[c-]2-c2ccccc2)cc1 (configuration not stated) | 6.00 and 6.48
